Source: US20160115540A1, “PRODRUGS AND DRUGS” (Biogen MA Inc., priority 2013, published 2016)
Where a name gives a salt, the structure may show the parent alone.

System: spleen
Assay: Transcriptional profiling on Affymetrix GeneChips, single dose, naïve mice: spleen
Type: in vivo, C57BL/6 mice
Conditions: for Number of differentially expressed genes identified: Spleen: Naïve, Single Dose; for FC Pdia4 (protein disulfide isomerase associated 4): probe 1416497_PM_at; for FC Aox1 (aldehyde oxidase 1): probe 1419435_PM_at; for FC Osgin1 (oxidative stress induced growth inhibitor 1): probe 1424022_PM_at; for FC Kirrel (kin of IRRE like (Drosophila)): probe 1434797_PM_at; for FC 9130221J17Rik (RIKEN cDNA 9130221J17 gene): probe 1443159_PM_at; for Number of genes, DMF Only / MMF Only: Spleen
Protocol: Treated mice were sacrificed at 2, 7, or 12 hours. Tissues (liver, spleen, kidney, jejunum, cortex, hippocampus, striatum and whole blood) were collected and analyzed by transcriptional profiling on mouse Affymetrix GeneChips.
Tissues (liver, spleen, kidney, jejunum, cortex, hippocampus, striatum and whole blood) were collected and analyzed by transcriptional profiling on mouse Affymetrix GeneChips.
Animals were exposed to CO2 and whole blood collected via cardiac puncture. Two 100 μl aliquots of whole blood were collected in 1.5 mL microcentrifuge tubes and snap frozen in liquid nitrogen. Peripheral (liver, spleen, kidney and jejunum) and CNS brain (cerebellum, hippocampus, striatum and cortex) tissues were harvested and snap frozen in liquid nitrogen, with special care taken to collect tissues of similar size and from the same location. All samples were stored at −80° C. until RNA extraction was conducted.
For RNA preparation, frozen tissues were placed in 2 mL RNAse-free 96-well blocks with 1.5 mL QIAzol Lysis Reagent (QIAgen) and a 3.2 mm stainless steel bead (BioSpec Products, Bartlesville, Okla.). Tissues were disrupted for four cycles of 45 seconds in a Mini-Beadbeater (Biospec Products). RNA was extracted in chloroform and the aqueous phase was mixed with an equal volume of 70% ethanol. Extracted RNA was applied to RNeasy 96 plates and purified by the spin method according to the manufacturer's protocol (RNeasy 96 Universal Tissue Protocol, QIAgen, Hilden Germany).
Automated sample amplifications and biotin labelings were carried out using the NuGEN Ovation RNA Amplification system V2 (Cat #3100), Ovation WB reagent (Cat #1300) and Encore Biotin module (Cat #4200) (NuGEN Technologies, Inc, San Carlos, Calif.) according to manufacturer's recommendations using an Arrayplex automated liquid handler (Beckman Coulter, Indianapolis, Ind.). Two micrograms of biotin labeled sscDNA probe were hybridized to Affymetrix GeneChip Affymetrix HT_MG-430_PM plate arrays with modified conditions as described in Allaire et al. Washing and staining of the hybridized arrays were completed as described in the GeneChip Expression analysis technical manual for HT plate arrays using the Genechip® Array Station (Affymetrix, Santa Clara, Calif.) with modifications as described in Allaire et al. The processed GeneChip® plate arrays were scanned using GeneTitan scanner (Affymetrix, Santa Clara, Calif.).
Affymetrix scans were subject to quality control (QC) measures. These tests included a visual inspection of the distribution of raw signal intensities and an assessment of RNA degradation, relative log expression (RLE), and normalized unsealed standard error (NUSE). All sample scans that passed these QC metrics were included in the analysis.
All CEL files were subjected to GC-content-based Robust Multi-array Average (GCRMA) normalization (version 2.20.0) (Irizarry R A, et al. Nucleic Acids Res 2003; 31:e15; Li C, et al. Genome Biol 2001; 2:[…]0032). Expression levels were log (base 2) transformed.
All calculations and analyses were carried out using R (version 2.11.1) and Bioconductor computational tools (Gentleman R. Springer Science+Business Media 2005).

[1] = 100 mpk, vs Vehicle, 2 h after last dosing
[2] = 100 mpk, vs Vehicle, 7 h after last dosing
[3] = 100 mpk, vs Vehicle, 12 h after last dosing

SMILES: COC(=O)/C=C/C(=O)OC [DMF, dimethyl fumarate]
- Number of differentially expressed genes identified: Spleen (100 mpk DMF-vs-100 mpk MMF, 2 h after last dosing): 0
- Number of differentially expressed genes identified: Spleen (100 mpk DMF-vs-100 mpk MMF, 7 h after last dosing): 0
- Number of differentially expressed genes identified: Spleen (100 mpk DMF-vs-100 mpk MMF, 12 h after last dosing): 0
- Number of differentially expressed genes identified: Spleen [1]: 13
- Number of differentially expressed genes identified: Spleen [2]: 2
- Number of differentially expressed genes identified: Spleen [3]: 0
- genes in differential expression gene list (SPLEEN, 100DMF-vs-100MMF, 2 h): None
- genes in differential expression gene list (SPLEEN, 100DMF-vs-100MMF, 7 h): None
- genes in differential expression gene list (SPLEEN, 100DMF-vs-100MMF, 12 h): None
- FC Pdia4 (protein disulfide isomerase associated 4) (SPLEEN, 100DMF-vs-Veh, 2 h): −1.60
- FC Aox1 (aldehyde oxidase 1) (SPLEEN, 100DMF-vs-Veh, 2 h): 2.61
- FC Srxn1 (sulfiredoxin 1 homolog (S. cerevisiae)) (SPLEEN, 100DMF-vs-Veh, 2 h, probe 1419942_PM_at): 2.16
- FC Txnrd1 (thioredoxin reductase 1) (SPLEEN, 100DMF-vs-Veh, 2 h, probe 1421529_PM_a_at): 1.55
- FC Osgin1 (oxidative stress induced growth inhibitor 1) (SPLEEN, 100DMF-vs-Veh, 2 h): 1.78
- FC Gclc (glutamate-cysteine ligase, catalytic subunit) (SPLEEN, 100DMF-vs-Veh, 2 h, probe 1424296_PM_at): 1.76
- FC Txnrd1 (thioredoxin reductase 1) (SPLEEN, 100DMF-vs-Veh, 2 h, probe 1424486_PM_a_at): 2.41
- FC Txnrd1 (thioredoxin reductase 1) (SPLEEN, 100DMF-vs-Veh, 2 h, probe 1424487_PM_x_at): 1.73
- FC Srxn1 (sulfiredoxin 1 homolog (S. cerevisiae)) (SPLEEN, 100DMF-vs-Veh, 2 h, probe 1426875_PM_s_at): 2.02
- FC Kirrel (kin of IRRE like (Drosophila)) (SPLEEN, 100DMF-vs-Veh, 2 h): −1.54
- FC 9130221J17Rik (RIKEN cDNA 9130221J17 gene) (SPLEEN, 100DMF-vs-Veh, 2 h): 1.52
- FC Mafg (v-maf musculoaponeurotic fibrosarcoma oncogene family, protein G (avian)) (SPLEEN, 100DMF-vs-Veh, 2 h, probe 1448916_PM_at): 1.58
- FC Srxn1 (sulfiredoxin 1 homolog (S. cerevisiae)) (SPLEEN, 100DMF-vs-Veh, 2 h, probe 1451680_PM_at): 1.53
- FC Srxn1 (sulfiredoxin 1 homolog (S. cerevisiae)) (SPLEEN, 100DMF-vs-Veh, 7 h, probe 1419942_PM_at): 1.67
- FC Srxn1 (sulfiredoxin 1 homolog (S. cerevisiae)) (SPLEEN, 100DMF-vs-Veh, 7 h, probe 1426875_PM_s_at): 1.50
- Number of genes, DMF Only / MMF Only: 2
- Aox1 (probe set 1419435_PM_at) differential expression (spleen, 2 hr): 2.61
- Gclc (probe set 1424296_PM_at) differential expression (spleen, 2 hr): 1.76
- Kirrel (probe set 1434797_PM_at) differential expression (spleen, 2 hr): −1.54
- Mafg (probe set 1448916_PM_at) differential expression (spleen, 2 hr): 1.58
- Osgin1 (probe set 1424022_PM_at) differential expression (spleen, 2 hr): 1.78
- Pdia4 (probe set 1416497_PM_at) differential expression (spleen, 2 hr): −1.60
- Srxn1 (probe set 1419942_PM_at) differential expression (spleen, 2 hr): 2.16
- Txnrd1 (probe set 1424486_PM_a_at) differential expression (spleen, 2 hr): 2.41
- Srxn1 (probe set 1419942_PM_at) differential expression (spleen, 7 hr): 1.67
- genes in differential expression gene list (spleen, 100DMF-vs-Veh, 12 h): None

SMILES: COC(=O)/C=C/C(=O)O [MMF, monomethyl fumarate]
- Number of differentially expressed genes identified: Spleen [1]: 12
- Number of differentially expressed genes identified: Spleen [2]: 2
- Number of differentially expressed genes identified: Spleen [3]: 0
- FC Pdia4 (protein disulfide isomerase associated 4) (SPLEEN, 100MMF-vs-Veh, 2 h): −1.59
- FC Aox1 (aldehyde oxidase 1) (SPLEEN, 100MMF-vs-Veh, 2 h): 2.35
- FC Srxn1 (sulfiredoxin 1 homolog (S. cerevisiae)) (SPLEEN, 100MMF-vs-Veh, 2 h, probe 1419942_PM_at): 2.02
- FC Txnrd1 (thioredoxin reductase 1) (SPLEEN, 100MMF-vs-Veh, 2 h, probe 1421529_PM_a_at): 1.53
- FC Osgin1 (oxidative stress induced growth inhibitor 1) (SPLEEN, 100MMF-vs-Veh, 2 h): 1.83
- FC Txnrd1 (thioredoxin reductase 1) (SPLEEN, 100MMF-vs-Veh, 2 h, probe 1424486_PM_a_at): 2.14
- FC Srxn1 (sulfiredoxin 1 homolog (S. cerevisiae)) (SPLEEN, 100MMF-vs-Veh, 2 h, probe 1426875_PM_s_at): 1.92
- FC 6330406I15Rik (RIKEN cDNA 6330406I15 gene) (SPLEEN, 100MMF-vs-Veh, 2 h, probe 1426937_PM_at): −1.58
- FC Kirrel (kin of IRRE like (Drosophila)) (SPLEEN, 100MMF-vs-Veh, 2 h): −1.65
- FC Armc8 (armadillo repeat containing 8) (SPLEEN, 100MMF-vs-Veh, 2 h, probe 1434951_PM_at): −1.54
- FC 9130221J17Rik (RIKEN cDNA 9130221J17 gene) (SPLEEN, 100MMF-vs-Veh, 2 h): 1.55
- FC probe 1446490_PM_at (no gene named) (SPLEEN, 100MMF-vs-Veh, 2 h, probe 1446490_PM_at): −1.76
- FC Srxn1 (sulfiredoxin 1 homolog (S. cerevisiae)) (SPLEEN, 100MMF-vs-Veh, 7 h, probe 1419942_PM_at): 1.87
- FC Srxn1 (sulfiredoxin 1 homolog (S. cerevisiae)) (SPLEEN, 100MMF-vs-Veh, 7 h, probe 1426875_PM_s_at): 1.69
- Number of genes, DMF Only / MMF Only: 3
- Aox1 (probe set 1419435_PM_at) differential expression (spleen, 2 hr): 2.35
- Armc8 (probe set 1434951_PM_at) differential expression (spleen, 2 hr): −1.54
- Kirrel (probe set 1434797_PM_at) differential expression (spleen, 2 hr): −1.65
- Osgin1 (probe set 1424022_PM_at) differential expression (spleen, 2 hr): 1.83
- Paip1 (probe set 1425521_PM_at) differential expression (spleen, 2 hr): −1.56
- Pdia4 (probe set 1416497_PM_at) differential expression (spleen, 2 hr): −1.59
- Rod1 (probe set 1424084_PM_at) differential expression (spleen, 2 hr): −1.54
- Srxn1 (probe set 1419942_PM_at) differential expression (spleen, 2 hr): 2.02
- Txnrd1 (probe set 1424486_PM_a_at) differential expression (spleen, 2 hr): 2.14
- Srxn1 (probe set 1419942_PM_at) differential expression (spleen, 7 hr): 1.87
- Srxn1 mRNA fold change vs vehicle (spleen, 2 hr after single 100 mg/kg oral dose): 1.87
